In patent US20060252727A1, “Medicinal compositions and therapeutic methods for treating arthritis and other painful conditions” (priority 2001, published 2006):
Marks after values point to notes of the source that are not given here.

Experiments:
PBQ writhing in mice [1] = assay: Anti-inflammatory activity, mouse phenylbenzylquinone (PBQ) writhing test; assay type: in vivo; settings: for Number of writhes: counted over 20 minutes
Method: Anti-inflammatory activity of DPA using the mouse phenylbenzylquinone (PBQ) writhing test. This is a generally recognized method for evaluating anti-inflammatory drugs of the aspirin/NSAID type, i.e. those drugs which counteract the action of the prostaglandins. Such drugs are useful for treating conditions such as arthritis in animals and humans.
In this method, a solution of PBQ was injected subcutaneously into groups of 6 mice (male, albino, 22-25 grams). Within a few minutes, the mice began to writhe. DPA was injected intra-peritoneally or given by mouth at different times prior to PBQ. The number of writhes was counted over a period of 20 minutes. The effects of DPA were compared to that of similarly administered saline control.

[2] = tested on: pain in patients with arthritis and other skeletal diseases; assay: Efficacy of DPA in humans with arthritis and other musculoskeletal diseases (open-label, cross-over); assay type: in vivo, human
Method: 4. Efficacy of DPA treatment for arthritis and a variety of other musculoskeletal diseases; human studies. Forty-three patients were studied in an open-label, cross-over procedure. Of these, 32 had arthritis. All of the patients had previously been given many treatments, without success, in relieving their pain. Pre-DPA administration treatments used included such potent drugs as Percodan, Darvocet, Valium, and aspirin, as well as acupuncture. Prior to giving DPA 800 mg/day by mouth, all treatments were stopped. Patients were given a card on which they scored their degree of pain, on a scale of 1-4; 1 indicated no relief, 2 indicated approximately 25% relief, 3 indicated approximately 50% relief, and 4 indicated complete relief.

[3] = tested on: carrageenan swelling of the rat paw; assay: Anti-inflammatory activity, rat paw carrageenan method; assay type: in vivo
Method: Anti-inflammatory activity of DPA using the rat paw carrageenan method. This is a generally recognized method for evaluating anti-inflammatory drugs of the aspirin/NSAID (as used throughout this application NSAID refers to a non-steroidal, anti-inflammatory drug) type or those that counteract the action of the prostaglandins. Such drugs are useful for treating conditions such as arthritis in animals and humans. In this method, the paw of the rat is injected with carrageenan, which causes swelling of the paw due to the accumulation of fluid. […] In this study, DPA was administered by various routes and times into groups of rats (6 male albino rats per group-weight approximately 250 grams) before carrageenan and the degree of swelling was measured by the extent of displacement of water when the paw was immersed into a calibrated cylinder. A placebo consisting of saline solution was similarly administered.

[4] = tested on: mouse hot plate jumping threshold; assay: Analgesic activity, mouse hot plate test; assay type: in vivo
Description: Analgesic activity of DPA using the mouse hot plate test. The mouse hot plate is a generally recognized method for evaluating analgesic drugs that act on the endorphin system, e.g., morphine-like drugs and drugs that increase endorphin levels, e.g., DPA. Such drugs are useful for treating many kinds of painful conditions, including arthritis, headache, low back pain, musculoskeletal pain, pre-menstrual pain, and dental pain.
In this method, groups of mice (6 albino mice per group, weighing between 22 and 25 grams) are individually placed on a hot plate at 55° C. and a beaker is placed over the mouse. The time for the mouse to jump in an attempt to escape the painful condition is recorded. An analgesic substance is one which increases the threshold to pain, thereby permitting the mouse to remain on the hot plate for longer times. The effect of the drug is compared to that of a saline control. DPA at different doses was injected intra-peritoneally into the mice 2 hours before they were placed on the hot plate, and jumping time determined over the next 1-2 hours. The effect of DPA was compared with that of an injection of saline.
For studies involving combinations of drugs, the combination was injected at the same time. In the studies shown below, the second drug consisted of indomethacin, diclofenac, or acetaminophen. Each of these drugs is used for treating arthritis, as well as many other painful conditions.

PBQ writhing in mice [5] = assay: Anti-inflammatory activity, mouse phenylbenzylquinone (PBQ) writhing test; assay type: in vivo; settings: for Number of writhes: counted over 20 minutes; remark: listed apart in the source
[6] = DPA 800 mg/day by mouth, 43 patients, 32 with arthritis, self-scored pain relief
[7] = NSAID alone, 20 mg/kg, hot plate at 55° C.

**Q.** Which results are given for N[C@H](Cc1ccccc1)C(=O)O [DPA, D-phenylalanine]?
**A.** % inhibition of writhing (PBQ writhing in mice [1]; intra-peritoneal injection, 2 hours before PBQ, 250 mg/kg): 73%; Number of writhes (PBQ writhing in mice [1]; intra-peritoneal injection, 2 hours before PBQ, 250 mg/kg, saline 125): 34; % inhibition of writhing (PBQ writhing in mice [1]; intra-peritoneal injection, 2 hours before PBQ, 500 mg/kg): 90%; Number of writhes (PBQ writhing in mice [1]; intra-peritoneal injection, 2 hours before PBQ, 500 mg/kg, saline 125): 13; % inhibition of writhing (PBQ writhing in mice [1]; oral administration, 2.5 hours before PBQ, 250 mg/kg): 10%; Number of writhes (PBQ writhing in mice [1]; oral administration, 2.5 hours before PBQ, 250 mg/kg, saline 148): 133; Number of writhes (PBQ writhing in mice [1]; oral administration, 2.5 hours before PBQ, 500 mg/kg, saline 148): 110; % inhibition of writhing (PBQ writhing in mice [1]; oral administration, 2.5 hours before PBQ, 1000 mg/kg): 62%; Number of writhes (PBQ writhing in mice [1]; oral administration, 2.5 hours before PBQ, 1000 mg/kg, saline 148): 56; Complete relief of pain (number of patients) [2, 6]: 2; Excellent relief of pain (number of patients) [2, 6]: 7; Moderate relief of pain (number of patients) [2, 6]: 19; No relief of pain (number of patients) ([2]; DPA 800 mg/day by mouth, 43 patients, most of these took DPA for only 1-2 weeks): 15*; effect on pain in humans ([2]; DPA alone, 800 mg/day): successfully decrease; % Inhibition of swelling ([3]; oral administration, 150 minutes before carrageenan, 125 mg/kg): 7%; % Inhibition of swelling ([3]; oral administration, 150 minutes before carrageenan, 250 mg/kg): 10%; % Inhibition of swelling ([3]; oral administration, 150 minutes before carrageenan, 500 mg/kg): 24%; % Inhibition of swelling ([3]; oral administration, 150 minutes before carrageenan, 1000 mg/kg): 62%; % Inhibition of swelling ([3]; oral administration, 150 minutes before carrageenan, 1500 mg/kg): 79%; % Inhibition of swelling ([3]; subcutaneous injection, 120 minutes before carrageenan, 8 mg/kg): 15%; % Inhibition of swelling ([3]; subcutaneous injection, 120 minutes before carrageenan, 125 mg/kg): 37%; % Inhibition of swelling ([3]; subcutaneous injection, 120 minutes before carrageenan, 500 mg/kg): 35%; % Inhibition of swelling ([3]; subcutaneous injection, 6 hours before carrageenan, dose 62.5): 35%; % Inhibition of swelling ([3]; subcutaneous injection, 6 hours before carrageenan, dose 250): 36%; % Inhibition of swelling ([3]; subcutaneous injection, 6 hours before carrageenan, dose 500): 75%; Increase in the threshold to jumping, compared to control ([4]; DPA 250 mg/kg intra-peritoneally, 2 hours before hot plate at 55° C.): 3-fold; increase of the threshold time to jump, as compared to saline control ([4]; mouse hot plate, as shown in Table 3): three-fold; % inhibition of writhing (PBQ writhing in mice [5]; oral administration, 2.5 hours before PBQ, 500 mg/kg): 24%; % inhibition of writhing (PBQ writhing in mice [5]; subcutaneous injection, 6 hours before PBQ, 62.5 mg/kg): 35%; Number of writhes (PBQ writhing in mice [5]; subcutaneous injection, 6 hours before PBQ, 62.5 mg/kg, saline 166): 108; % inhibition of writhing (PBQ writhing in mice [5]; subcutaneous injection, 6 hours before PBQ, 250 mg/kg): 36%; Number of writhes (PBQ writhing in mice [5]; subcutaneous injection, 6 hours before PBQ, 250 mg/kg, saline 166): 106; % inhibition of writhing (PBQ writhing in mice [5]; subcutaneous injection, 6 hours before PBQ, 500 mg/kg): 75%; Number of writhes (PBQ writhing in mice [5]; subcutaneous injection, 6 hours before PBQ, 500 mg/kg, saline 110): 28

**Q.** Which “Increase in the threshold to jumping, compared to control” value [4, 7] does the source give for COc1ccc2c(c1)c(CC(=O)O)c(C)n2C(=O)c1ccc(Cl)cc1 [Indomethacin, indomethacin, reference compound] here?
**A.** 0

**Q.** Which “Increase in the threshold to jumping, compared to control” value [4, 7] does the source give for O=C(O)Cc1ccccc1Nc1c(Cl)cccc1Cl [Diclofenac, diclofenac, reference compound] here?
**A.** 0
